According to patent US10266550B2, “Bacterial topoisomerase I inhibitors with antibacterial activity” (The Florida International University Board of Trustees, priority 2016, dated 2019):
Values after ≈ are worked out from the molar mass of the structure shown. Where two headings read alike, the source gives them in different places.

Experiments:
E. coli topoisomerase I = E. coli topoisomerase I (Escherichia coli (strain K12), UniProt P06612); assay: biochemical; assay type: biochemical; settings: for PIC50 (pIC50 = −log IC50): experimental, converted from IC50
Protocol: (§1) Recombinant E. coli topoisomerase I and gyrase expressed in E. coli were purified as described previously.
E. coli Topoisomerase I Relaxation Activity Inhibition Assay
The relaxation activity of E. coli topoisomerase I was assayed in a buffer containing 10 mM Tris-HCl, pH 8.0, 50 mM NaCl, 0.1 mg/mL gelatin, and 0.5 mM MgCl2. Half microliter from the appropriate stock solutions of compounds dissolved in the solvent (DMSO) or the solvent alone (control) was mixed with 9.5 μL of the reaction buffer containing 10 ng of enzyme before the addition of 10 μL of reaction buffer containing 200 ng of supercoiled pBAD/Thio plasmid DNA purified by cesium chloride gradient as substrate. Following incubation at 37° C. for 30 min, the reactions were terminated by the addition of 4 μL of a stop buffer (50% glycerol, 50 mM EDTA, and 0.5% (v/v) bromophenol blue), and analyzed by agarose gel electrophoresis. The gels were stained in ethidium bromide and photographed under UV light.

Human topoisomerase I = Human topoisomerase I (Homo sapiens (Human), UniProt P11387); assay: Human topoisomerase I relaxation inhibition assay; assay type: biochemical; settings: read-out: Topoisomerase inhibitory activity (IC50) Human topo I (type IB)
Protocol: Human topoisomerase I relaxation assays were carried out with 0.5 U of enzyme in reaction buffer supplied by the manufacturer. The enzyme was mixed with the indicated concentration of compound dissolved before 200 ng of supercoiled pBAD/Thio plasmid DNA was added in the same buffer, for a final volume of 20 μL. Following incubation at 37° C. for 30 minutes, the reactions were terminated with a buffer containing 5% SDS, 0.25% bromophenol blue, and 25% glycerol, and analyzed by agarose gel electrophoresis.
Human topoisomerase I and topoisomerase IIα were purchased from TopoGen (Buena vista, CO, USA).

[1] = tested on: E. coli Imp4213 (BAS3023); assay: MIC, microdilution in Mueller-Hinton Broth; assay type: cell-based; settings: for MIC: Escherichia coli, read-out: Whole cell based antibacterial activity (MIC) E. coli Imp4213 (BAS3023), membrane permeable imp mutant; for Whole cell based antibacterial activity (MIC) E. coli Imp4213 (BAS3023): membrane permeable imp mutant
M. tuberculosis (H37Rv) = assay: MIC, microplate Alamar blue assay (MABA); assay type: cell-based
[2] = Vero cell cytotoxicity assay; assay type: cell-based
Protocol: (§2) MICs of compounds against M. tuberculosis were determined by a modified microplate Alamar blue assay (MABA). Vero cell cytotoxicity assay was performed as previously described.

Vero cells = assay: Vero cell cytotoxicity assay; assay type: cell-based; settings: for IC50: cytotoxicity
Protocol: as §2

E. coli (MG1655) WT = assay: MIC, microdilution in Mueller-Hinton Broth; settings: wild type, read-out: Whole cell based antibacterial activity (MIC) E. coli (MG1655) WT
Human topoisomerase IIα = Human topoisomerase IIα (Homo sapiens (Human), UniProt P11388); assay: Human topoisomerase IIα decatenation inhibition assay; assay type: biochemical; settings: kDNA decatenation; read-out: Topoisomerase inhibitory activity (IC50) Human topo IIα (type IIA)
Protocol: Human topoisomerase I and topoisomerase IIα were purchased from TopoGen (Buena vista, CO, USA). […] The reactions were then analyzed by electrophoresis in 1% agarose gels containing […] ethidium bromide before being photographed under UV light.

E. coli DNA gyrase = E. coli DNA gyrase (Escherichia coli (strain K12), UniProt P0AES4+P0AES6); assay: DNA gyrase supercoiling inhibition assay; assay type: biochemical; settings: for IC50: supercoiling of relaxed DNA, read-out: Topoisomerase inhibitory activity (IC50) E. coli DNA gyrase (type IIA)
Protocol: as §1
The samples were incubated at 37° C. for 30 minutes before being terminated by the addition of a buffer containing 5% SDS, 0.25% bromophenol blue, and 25% glycerol. The reactions were then analyzed by agarose gel electrophoresis.

[3] = tested on: mycobacterium smegmatis in biofilm; assay: Biofilm viability by resazurin assay; assay type: cell-based
Protocol: Viability of the mycobacteria mycobacterium smegmatis in biofilm was measured by the resazurin assay.
The resazurin assay is a quick method using the resazurin dye as a bacterial respiration indicator to assay the antibacterial activity of various compounds used against bacterial biofilm growth. Such assay is well-known in the art. […] The biofilm was quantified indirectly by measuring the fluorescent, water-soluble resorufin product produced when resazurin is reduced by reactions associated with respiration.

[4] = target: Mycobacterium tuberculosis topoisomerase I (Mycobacterium tuberculosis (strain ATCC 25618 / H37Rv), UniProt P9WG49); assay: Mycobacterium tuberculosis topoisomerase I inhibition; assay type: biochemical; settings: Table 2; read-out: IC50 against Mycobacterium tuberculosis topoisomerase I
[5] = tested on: MRSA (staphylococcus aureus BAA44); assay: MIC against MRSA; assay type: cell-based
[6] = tested on: B. subtilis (ATCC 6633) WT; assay: MIC, microdilution in Mueller-Hinton Broth; settings: wild type; read-out: Whole cell based antibacterial activity (MIC) B. subtilis (ATCC 6633) WT
[7] = tested on: several cancer cell lines; settings: literature [32]; read-out: IC50 against several cancer cell lines; cited from earlier work
[8] = 1H NMR experiments
bacterial strains = assay: Whole cell antibacterial activity after storage; assay type: cell-based; settings: after 4 weeks of storage
[9] = Mycobacterium tuberculosis, H37RV, MABA, read-out: Whole cell based antibacterial activity (MIC) M. tuberculosis (H37Rv)
[10] = Topoisomerase inhibitory activity (IC50) E. coli topo I (type IA), relaxation of supercoiled plasmid DNA
[11] = Table 3, E. coli topoisomerase I, single values set for ranges and bounds, read-out: IC50 (μM) used for CoMFA
[12] = relaxation of supercoiled plasmid DNA, read-out: Topoisomerase inhibitory activity (IC50) E. coli topo I (type IA)
[13] = MABA, read-out: Whole cell based antibacterial activity (MIC) M. tuberculosis (H37Rv)

Sequence of Human topoisomerase IIα (P11388 whole entry): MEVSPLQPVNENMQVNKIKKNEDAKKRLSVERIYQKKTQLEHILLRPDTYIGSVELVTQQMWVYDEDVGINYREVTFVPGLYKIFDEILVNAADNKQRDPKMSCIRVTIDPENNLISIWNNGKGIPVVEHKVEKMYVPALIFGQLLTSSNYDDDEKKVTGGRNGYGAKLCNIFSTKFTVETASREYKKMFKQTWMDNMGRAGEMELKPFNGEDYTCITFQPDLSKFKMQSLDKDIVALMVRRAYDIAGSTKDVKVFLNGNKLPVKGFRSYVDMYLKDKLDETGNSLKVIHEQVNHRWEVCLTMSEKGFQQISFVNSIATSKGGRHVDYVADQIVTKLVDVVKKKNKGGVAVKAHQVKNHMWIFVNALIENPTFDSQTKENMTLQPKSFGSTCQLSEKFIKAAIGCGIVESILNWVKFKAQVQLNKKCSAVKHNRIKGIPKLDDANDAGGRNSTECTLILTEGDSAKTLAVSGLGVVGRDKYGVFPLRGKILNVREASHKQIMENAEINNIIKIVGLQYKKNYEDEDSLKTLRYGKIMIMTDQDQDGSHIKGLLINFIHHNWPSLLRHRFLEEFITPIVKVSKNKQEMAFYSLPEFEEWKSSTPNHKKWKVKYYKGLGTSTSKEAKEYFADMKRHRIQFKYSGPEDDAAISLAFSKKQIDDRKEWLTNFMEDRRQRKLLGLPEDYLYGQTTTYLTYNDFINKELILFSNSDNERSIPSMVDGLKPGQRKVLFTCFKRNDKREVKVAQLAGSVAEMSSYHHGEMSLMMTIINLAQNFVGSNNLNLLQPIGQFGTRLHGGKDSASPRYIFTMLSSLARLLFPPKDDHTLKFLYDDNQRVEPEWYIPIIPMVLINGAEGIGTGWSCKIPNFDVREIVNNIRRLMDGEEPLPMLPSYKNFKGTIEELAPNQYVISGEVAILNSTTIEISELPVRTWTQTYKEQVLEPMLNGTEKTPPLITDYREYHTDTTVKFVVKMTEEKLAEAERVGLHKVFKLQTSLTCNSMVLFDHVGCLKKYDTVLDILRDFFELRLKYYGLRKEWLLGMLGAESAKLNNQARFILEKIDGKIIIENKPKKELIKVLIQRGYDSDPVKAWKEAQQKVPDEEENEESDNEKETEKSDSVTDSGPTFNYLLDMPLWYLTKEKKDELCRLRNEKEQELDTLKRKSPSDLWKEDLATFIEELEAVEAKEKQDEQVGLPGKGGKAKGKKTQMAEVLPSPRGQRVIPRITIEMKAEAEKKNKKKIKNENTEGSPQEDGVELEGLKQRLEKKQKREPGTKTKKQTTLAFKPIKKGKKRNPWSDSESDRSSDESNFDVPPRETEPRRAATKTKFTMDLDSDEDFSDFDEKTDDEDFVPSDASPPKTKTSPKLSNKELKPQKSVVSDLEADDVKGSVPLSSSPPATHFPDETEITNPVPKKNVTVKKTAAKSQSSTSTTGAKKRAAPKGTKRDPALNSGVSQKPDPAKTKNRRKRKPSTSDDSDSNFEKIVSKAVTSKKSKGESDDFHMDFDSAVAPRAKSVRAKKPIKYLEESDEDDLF
Sequence of E. coli topoisomerase I (P06612 whole entry, looked up): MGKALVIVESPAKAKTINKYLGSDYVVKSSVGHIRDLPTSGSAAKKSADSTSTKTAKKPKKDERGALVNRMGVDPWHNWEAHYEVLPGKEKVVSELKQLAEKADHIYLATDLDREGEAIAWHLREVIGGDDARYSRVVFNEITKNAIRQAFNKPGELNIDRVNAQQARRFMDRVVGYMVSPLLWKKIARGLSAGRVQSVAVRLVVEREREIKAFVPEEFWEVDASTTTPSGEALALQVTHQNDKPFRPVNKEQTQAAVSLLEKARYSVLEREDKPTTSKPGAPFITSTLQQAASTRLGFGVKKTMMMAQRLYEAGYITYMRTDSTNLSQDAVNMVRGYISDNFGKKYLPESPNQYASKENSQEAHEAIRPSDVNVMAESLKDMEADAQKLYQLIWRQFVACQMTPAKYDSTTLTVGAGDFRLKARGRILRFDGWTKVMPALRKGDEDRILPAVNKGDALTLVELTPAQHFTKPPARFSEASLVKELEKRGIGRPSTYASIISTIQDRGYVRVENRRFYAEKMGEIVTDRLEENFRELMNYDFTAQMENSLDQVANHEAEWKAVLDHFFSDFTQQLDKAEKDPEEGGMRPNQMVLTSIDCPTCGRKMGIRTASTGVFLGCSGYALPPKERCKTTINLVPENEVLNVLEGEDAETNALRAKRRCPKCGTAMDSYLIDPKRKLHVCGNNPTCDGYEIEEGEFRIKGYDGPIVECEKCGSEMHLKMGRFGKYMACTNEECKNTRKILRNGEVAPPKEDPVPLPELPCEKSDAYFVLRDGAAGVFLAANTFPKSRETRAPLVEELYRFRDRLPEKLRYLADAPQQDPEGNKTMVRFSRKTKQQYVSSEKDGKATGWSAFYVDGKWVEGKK
Sequence of Human topoisomerase I (P11387 whole entry): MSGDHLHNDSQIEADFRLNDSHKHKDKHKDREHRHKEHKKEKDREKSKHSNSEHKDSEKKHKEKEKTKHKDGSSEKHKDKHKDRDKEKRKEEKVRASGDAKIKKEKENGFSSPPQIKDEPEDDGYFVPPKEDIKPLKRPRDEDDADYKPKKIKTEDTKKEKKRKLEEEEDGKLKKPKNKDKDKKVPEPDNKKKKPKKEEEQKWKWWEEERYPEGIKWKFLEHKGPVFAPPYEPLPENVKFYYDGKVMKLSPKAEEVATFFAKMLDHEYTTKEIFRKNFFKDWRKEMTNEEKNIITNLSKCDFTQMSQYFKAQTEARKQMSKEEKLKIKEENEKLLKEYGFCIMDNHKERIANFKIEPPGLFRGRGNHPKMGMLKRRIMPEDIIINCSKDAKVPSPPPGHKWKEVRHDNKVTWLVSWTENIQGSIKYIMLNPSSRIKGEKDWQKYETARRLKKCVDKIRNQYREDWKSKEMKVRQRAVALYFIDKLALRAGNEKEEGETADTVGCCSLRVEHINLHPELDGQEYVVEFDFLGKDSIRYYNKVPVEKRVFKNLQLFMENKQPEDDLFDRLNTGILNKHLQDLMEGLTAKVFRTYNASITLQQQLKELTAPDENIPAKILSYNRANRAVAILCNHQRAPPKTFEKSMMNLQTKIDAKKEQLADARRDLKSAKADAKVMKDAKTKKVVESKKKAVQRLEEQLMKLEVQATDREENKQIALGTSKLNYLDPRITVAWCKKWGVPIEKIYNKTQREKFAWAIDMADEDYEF

CN1CCN(c2c(F)cc3c(=O)c(C(=O)O)cn4c3c2Oc2cc([N+](=O)[O-])ccc2-4)CC1 [Compound 10a, 5-Fluoro-6-(4-methylpiperazin-1-yl)-9-nitro-3-oxo-3H-pyrido[3,2,1-kl]phenoxazine-2-carboxylic acid]
PIC50 (pIC50 = −log IC50) (E. coli topoisomerase I): 5.71
IC50 (Human topoisomerase I): 31.2 µM
MIC [1]: 1.56 µM (≈ 0.687 µg/mL)
MIC (M. tuberculosis (H37Rv); [9]): 19 µM (≈ 8.37 µg/mL)
selectivity ratio ([2]; monkey): 5
IC50 (Vero cells; Chlorocebus sabaeus, Vero): 95 µM
MIC (E. coli (MG1655) WT; Escherichia coli, MG1655): 100 µM (≈ 44 µg/mL)
IC50 (Human topoisomerase IIα): 250 to 500 µM

N[C@H]1CCN(c2c(F)cc3c(=O)c(C(=O)O)cn4c3c2Oc2cc([N+](=O)[O-])ccc2-4)C1 [Compound 16, (S)-6-(3-aminopyrrolidin-1-yl)-5-fluoro-9-nitro-3-oxo-3H-pyrido[3,2,1-kl]phenoxazine-2-carboxylic acid]
IC50 (E. coli DNA gyrase): 3.9 µM
IC50 (E. coli topoisomerase I; [10]): 0.24 to 0.97 µM
PIC50 (pIC50 = −log IC50) (E. coli topoisomerase I): 6.32
IC50 (Human topoisomerase I): 7.8 µM
MIC [1]: 1.56 µM (≈ 0.665 µg/mL)
MIC (M. tuberculosis (H37Rv); [9]): > 50 µM
IC50 (Vero cells; Chlorocebus sabaeus, Vero): > 50 µM
MIC (E. coli (MG1655) WT; Escherichia coli, MG1655): > 200 µM

O=C(O)c1cn(C2CC2)c2cc(N3CCNCC3)c(F)cc2c1=O [ciprofloxacin, reference compound]
concentration that abolishes 90% of viability in biofilm [3]: ≥ 24 µM

Nc1ccc2c(c1)Oc1c(N3CCOCC3)c(F)cc3c(=O)c(C(=O)O)cn-2c13 [Compound 11d, 9-Amino-5-fluoro-6-morpholino-3-oxo-3H-pyrido[3,2,1-kl]phenoxazine-2-carboxylic acid]
IC50 [4]: 0.48 µM
IC50 (E. coli DNA gyrase): 7.8 µM
PIC50 (pIC50 = −log IC50) (E. coli topoisomerase I): 6.01
IC50 (Human topoisomerase I): 15.6 µM
MIC [1]: 0.19 to 0.39 µM (≈ 0.0755 to 0.155 µg/mL)
MIC (M. tuberculosis (H37Rv); [9]): 3.5 µM (≈ 1.39 µg/mL)
selectivity ratio ([2]; monkey): 7.1
IC50 (Vero cells; Chlorocebus sabaeus, Vero): 24.7 µM
MIC [5]: 3 µM (≈ 1.19 µg/mL)
MIC (E. coli (MG1655) WT; Escherichia coli, MG1655): > 200 µM
IC50 (Human topoisomerase IIα): 15.6 µM

Nc1ccc2c(c1)Oc1c(N3CC[C@H](N)C3)c(F)cc3c(=O)c(C(=O)O)cn-2c13 [Compound 17a, (S)-9-amino-6-(3-aminopyrrolidin-1-yl)-S-fluoro-3-oxo-3H-pyrido[3,2,1-kl]phenoxazine-2-carboxylic acid]
MIC [6]: 6.25 µM (≈ 2.48 µg/mL)
IC50 (E. coli topoisomerase I; [11]): 0.73 µM
PIC50 (pIC50 = −log IC50) (E. coli topoisomerase I): 6.14
IC50 (E. coli topoisomerase I; [12]): 0.48 to 0.97 µM
Whole cell based antibacterial activity (MIC) E. coli Imp4213 (BAS3023) [1]: 1.56 µM
MIC (M. tuberculosis (H37Rv); [13]): >63.1 µM
IC50 (Vero cells): > 63.1 µM
MIC (E. coli (MG1655) WT): >200 µM

N[C@H]1CCN(c2c(F)cc3c(=O)c(C(=O)O)cn4c3c2Oc2ccccc2-4)C1 [Compound A-62176]
IC50 [7]: 0.87 to 4.34 µM

O=C(O)c1cn2c3c(c(F)c(F)cc3c1=O)Oc1cc([N+](=O)[O-])c(Cl)cc1-2 [Compound 7e, 10-Chloro-5,6-difluoro-9-nitro-3-oxo-3H-pyrido[3,2,1-kl]phenoxazine-2-carboxylic acid]
selectivity toward topoisomerase I over DNA gyrase (E. coli DNA gyrase): 2 fold
IC50 (E. coli DNA gyrase): 62.5 µM
PIC50 (pIC50 = −log IC50) (E. coli topoisomerase I): 4.51
IC50 (Human topoisomerase I): 31.2 µM
MIC [1]: 0.39 µM (≈ 0.154 µg/mL)
MIC (M. tuberculosis (H37Rv); [9]): 29 µM (≈ 11.4 µg/mL)
selectivity ratio ([2]; monkey): > 4.4
IC50 (Vero cells; Chlorocebus sabaeus, Vero): > 127 µM
MIC (E. coli (MG1655) WT; Escherichia coli, MG1655): 50 µM (≈ 19.7 µg/mL)
IC50 (Human topoisomerase IIα): 125 µM

Nc1ccc2c(c1)Oc1c(NC34CC5CC(CC(C5)C3)C4)c(F)cc3c(=O)c(C(=O)O)cn-2c13 [Compound 11f, 6-(((3s, 5s, 7s)-Adamantan-1-yl)amino)-9-amino-5-fluoro-3-oxo-3H-pyrido[3,2,1-kl]phenoxazine-2-carboxylic acid]
MIC [6]: 12.5 µM (≈ 5.77 µg/mL)
IC50 (E. coli topoisomerase I; [11]): 5.85 µM
PIC50 (pIC50 = −log IC50) (E. coli topoisomerase I): 5.23
IC50 (E. coli topoisomerase I; [12]): 3.9 to 7.8 µM
Whole cell based antibacterial activity (MIC) E. coli Imp4213 (BAS3023) [1]: 3.12 µM
MIC (M. tuberculosis (H37Rv); [13]): 38.4 µM (≈ 17.7 µg/mL)
SI (Selectivity index = cytotoxic IC50 against Vero cells/MIC against M. tuberculosis) (Vero cells): 0.8
IC50 (Vero cells): 30.7 µM
MIC (E. coli (MG1655) WT): >200 µM

Nc1ccc2c(c1)Oc1c(NCCN3CCOCC3)c(F)cc3c(=O)c(C(=O)O)cn-2c13 [Compound 11h, 9-Amino-5-fluoro-6-((2-morpholinoethyl)amino)-3-oxo-3H-pyrido[3,2,1-kl]phenoxazine-2-carboxylic acid]
IC50 (E. coli DNA gyrase): 15.6 to 31.2 µM
IC50 (Human topoisomerase I): 7.8 to 15.6 µM
Whole cell based antibacterial activity (MIC) E. coli Imp4213 (BAS3023) [1]: 0.78 µM
MIC (M. tuberculosis (H37Rv); [13]): 21.6 µM (≈ 9.51 µg/mL)
IC50 (Vero cells; Chlorocebus sabaeus, Vero): 43 µM
MIC (E. coli (MG1655) WT): >200 µM

Nc1ccc2c(c1)Oc1c(N3CCC(N4CCCCC4)CC3)c(F)cc3c(=O)c(C(=O)O)cn-2c13 [Compound 11g, 6-([1,4′-Bipiperidin]-1′-yl)-9-amino-5-fluoro-3-oxo-3H-pyrido[3,2,1-kl]phenoxazine-2-carboxylic acid]
concentration that abolishes 90% of viability in biofilm [3]: 1.5 to 3 µM
IC50 [4]: 0.24 µM
IC50 (E. coli DNA gyrase): 15.6 µM
IC50 (E. coli topoisomerase I; [10]): 0.24 to 0.97 µM
PIC50 (pIC50 = −log IC50) (E. coli topoisomerase I): 6.31
IC50 (E. coli topoisomerase I; [12]): 0.48 µM
IC50 (Human topoisomerase I): 3.9 µM
MIC [1]: 0.39 to 0.78 µM (≈ 0.187 to 0.373 µg/mL)
MIC (M. tuberculosis (H37Rv); Mycobacterium tuberculosis strain H37Rv, Table 2, read-out: MIC (TB)): 2.5 µM (≈ 1.2 µg/mL)
MIC (M. tuberculosis (H37Rv); [9]): 2.5 µM (≈ 1.2 µg/mL)
selectivity ratio ([2]; African green monkey): 9.8
selectivity ratio ([2]; monkey): 9.8
IC50 (Vero cells; Chlorocebus sabaeus, Vero): 24.4 µM
MIC [5]: 12.5 µM (≈ 5.98 µg/mL)
MIC (E. coli (MG1655) WT; Escherichia coli, MG1655): > 200 µM
IC50 (Human topoisomerase IIα): 1.95 to 3.9 µM

Nc1ccc2c(c1)Oc1c(F)c(F)cc3c(=O)c(C(=O)O)cn-2c13 [Compound 1, 9-Amino-5,6-difluoro-3-oxo-3H-pyrido[3,2,1-kl]phenoxazine-2-carboxylic acid]
precipitation in d6-DMSO solvent [8]: could be easily precipitated out
IC50 (E. coli DNA gyrase): > 125 µM
PIC50 (pIC50 = −log IC50) (E. coli topoisomerase I): 5.71
IC50 (Human topoisomerase I): 31.3 µM
MIC [1]: 0.78 to 1.56 µM (≈ 0.258 to 0.515 µg/mL)
loss of whole cell antibacterial activity after storage (bacterial strains): 2-4 fold
MIC (E. coli (MG1655) WT; Escherichia coli, MG1655): > 200 µM
IC50 (Human topoisomerase IIα): > 500 µM
